# According to ChEMBL document CHEMBL5543109, “Novel β-Hairpin Antimicrobial Peptide Containing the β-Turn Sequence of -NG- and the Tryptophan Zippers Facilitate Self-Assembly into Nanofibers, Exhibiting Excellent Antimicrobial Performance” (J Med Chem, 2024):
# The source made the active and inactive calls. The calls are words filed in the database; no cut-off is given here.
# What was measured:
# [1] = test system: Staphylococcus epidermidis; test: Antibacterial activity against Staphylococcus epidermidis ATCC 12228 incubated for 18 hrs by broth microdilution method; type: functional
# [2] = Self-assembly property of compound in 50% TFE assessed as beta-sheet content; type: physicochemical
# [3] = test system: Pseudomonas aeruginosa; test: Antibacterial activity against Pseudomonas aeruginosa ATCC 27853 incubated for 18 hrs by broth microdilution method; type: functional
# [4] = test system: Bacillus subtilis; test: Bactericidal activity against Bacillus subtilis ATCC 23857 incubated for 18 hrs by broth microdilution method; type: functional
# [5] = test system: Klebsiella pneumoniae; test: Antibacterial activity against Klebsiella pneumoniae ATCC 700603 incubated for 18 hrs by broth microdilution method; type: functional
# [6] = Self-assembly property of compound in PBS assessed as beta-sheet content; type: physicochemical; conditions: buffer
# [7] = test system: Staphylococcus aureus; test: Antibacterial activity against Staphylococcus aureus at 2 times MIC preincubated for 1 hr with trypsin followed by enzyme inactivation and bacterial addition and measured after 18 hrs; type: functional; conditions: time 19 hrs
# [8] = Retention time of the compound; type: physicochemical
# [9] = Self-assembly property of compound in water assessed as beta-sheet content; type: physicochemical
# [10] = test system: Staphylococcus aureus; test: Antibacterial activity against Staphylococcus aureus at 2 times MIC preincubated for 1 hr with chymotrypsin followed by enzyme inactivation and bacterial addition and measured after 18 hrs; type: functional; conditions: time 19 hrs
# [11] = test system: Klebsiella pneumoniae; test: Bactericidal activity against Klebsiella pneumoniae ATCC 700603 incubated for 18 hrs by broth microdilution method; type: functional
# [12] = test system: Escherichia coli; test: Bactericidal activity against Escherichia coli ATCC 25922 incubated for 18 hrs by broth microdilution method; type: functional
# [13] = Self-assembly property of compound in PBS assessed as beta-sheet nanofibers formation incubated for 1 hr by Thioflavin T based fluorescence spectrophotometer analysis; type: physicochemical; conditions: buffer, dose 0.5-1.5 µM
# [14] = test system: Staphylococcus aureus; test: Bactericidal activity against Staphylococcus aureus ATCC 25923 incubated for 18 hrs by broth microdilution method; type: functional
# [15] = test system: Bacillus subtilis; test: Antibacterial activity against Bacillus subtilis ATCC 23857 incubated for 18 hrs by broth microdilution method; type: functional
# [16] = test system: Staphylococcus epidermidis; test: Bactericidal activity against Staphylococcus epidermidis ATCC 12228 incubated for 18 hrs by broth microdilution method; type: functional
# [17] = test system: Staphylococcus aureus; test: Antibacterial activity against Staphylococcus aureus ATCC 25923 incubated for 18 hrs by broth microdilution method; type: functional
# [18] = test system: Escherichia coli; test: Antibacterial activity against Escherichia coli ATCC 25922 incubated for 18 hrs by broth microdilution method; type: functional
# [19] = test system: Pseudomonas aeruginosa; test: Bactericidal activity against Pseudomonas aeruginosa ATCC 27853 incubated for 18 hrs by broth microdilution method; type: functional
# [20] = test system: Erythrocyte; test: Hemolytic activity in mouse erythrocytes assessed as concentration required to cause 10% hemolysis incubated for 1 hr; type: toxicity, cell-based
# [21] = test system: Escherichia coli; test: Antibacterial activity against Escherichia coli at 2 times MIC preincubated with 256 ug/ml LPS for 1 hr followed by bacterial addition and measured after 5 hrs; type: functional, organism-based; conditions: time 6.0 hrs
# [22] = test system: Pseudomonas aeruginosa; test: Drug resistance against Pseudomonas aeruginosa assessed as fold increase in MIC after 40 consecutive days of passages by sequential passaging method; type: functional; conditions: time 18.0 hrs
# [23] = test system: Cell membrane; test: Induction of cell membrane disruption in Escherichia coli assessed as PI uptake at 2 times MIC incubated for 2 hrs by PI staining based flow cytometry analysis (reference value: 11.9%); type: cell membranes
# [24] = test system: Staphylococcus aureus; test: Antibacterial activity against Staphylococcus aureus S125 incubated for 18 hrs by broth microdilution method; type: functional
# [25] = test system: Staphylococcus aureus; test: Induction of morphological change in Staphylococcus aureus assessed as bacterial collapse at 2 times MIC incubated for 30 mins by SEM analysis; type: functional, organism-based
# [26] = test system: Cell membrane; test: Induction of cell membrane disruption in Staphylococcus aureus assessed as PI uptake at 4 times MIC incubated for 2 hrs by PI staining based flow cytometry analysis (reference value: 15.9%); type: cell membranes
# [27] = test system: Pseudomonas aeruginosa; test: Induction of morphological change in Pseudomonas aeruginosa assessed as bacterial collapse at 2 times MIC incubated for 30 mins by SEM analysis; type: functional, organism-based
# [28] = test system: Pseudomonas aeruginosa; test: Induction of morphological change in Pseudomonas aeruginosa assessed as bacterial lysis at 2 times MIC incubated for 30 mins by SEM analysis; type: functional, organism-based
# [29] = test system: Cell membrane; test: Induction of cell membrane disruption in Escherichia coli assessed as PI uptake at 2 to 4 times MIC incubated for 2 hrs by PI staining based confocal laser scanning microscopy; type: cell membranes
# [30] = test system: Escherichia coli; test: Antibacterial activity against rifampicin resistant Escherichia coli incubated for 18 hrs by broth microdilution method; type: functional
# [31] = test system: Staphylococcus aureus; test: Antibacterial activity against methicillin resistant Staphylococcus aureus incubated for 18 hrs by broth microdilution method; type: functional
# [32] = test system: Cell membrane; test: Induction of cell membrane disruption in Staphylococcus aureus assessed as PI uptake at 2 to 4 times MIC incubated for 2 hrs by PI staining based confocal laser scanning microscopy; type: cell membranes
# [33] = test system: Escherichia coli; test: Antibacterial activity against Escherichia coli incubated for 18 hrs by broth microdilution method; type: functional
# [34] = test system: Escherichia coli; test: Antibacterial activity against kanamycin resistant Escherichia coli incubated for 18 hrs by broth microdilution method; type: functional
# [35] = test system: Cell membrane; test: Induction of cell membrane disruption in Staphylococcus aureus assessed as PI uptake at 2 times MIC incubated for 2 hrs by PI staining based flow cytometry analysis (reference value: 15.9%); type: cell membranes
# [36] = test system: Staphylococcus aureus; test: Antibacterial activity against Staphylococcus aureus S794 incubated for 18 hrs by broth microdilution method; type: functional
# [37] = test system: Staphylococcus aureus; test: Induction of morphological distortion in Staphylococcus aureus assessed as bacterial collapse at 2 times MIC incubated for 30 mins by SEM analysis; type: functional, organism-based
# [38] = test system: Staphylococcus aureus; test: Induction of morphological change in Staphylococcus aureus assessed as bacterial lysis at 2 times MIC incubated for 30 mins by SEM analysis; type: functional, organism-based
# [39] = test system: Staphylococcus aureus; test: Antibacterial activity against Staphylococcus aureus incubated for 18 hrs by broth microdilution method; type: functional
# [40] = test system: Staphylococcus aureus; test: Antibacterial activity against rifampicin resistant Staphylococcus aureus incubated for 18 hrs by broth microdilution method; type: functional
# [41] = test system: Staphylococcus aureus; test: Antibacterial activity against methicillin resistant Staphylococcus aureus 113 incubated for 18 hrs by broth microdilution method; type: functional
# [42] = test system: Staphylococcus aureus; test: Antibacterial activity against kanamycin resistant Staphylococcus aureus incubated for 18 hrs by broth microdilution method; type: functional
# [43] = test system: Cell membrane; test: Induction of cell membrane disruption in Escherichia coli assessed as PI uptake at 4 times MIC incubated for 2 hrs by PI staining based flow cytometry analysis (reference value: 11.9%); type: cell membranes
# [44] = test system: Staphylococcus aureus; test: Antibacterial activity against methicillin resistant Staphylococcus aureus 75 incubated for 18 hrs by broth microdilution method; type: functional
# [45] = test system: Pseudomonas aeruginosa; test: Induction of morphological distortion in Pseudomonas aeruginosa assessed as bacterial collapse at 2 times MIC incubated for 30 mins by SEM analysis; type: functional, organism-based
compound,measurement,setting,value
NCCCC[C@@H](NC(=O)[C@H](N)Cc1c[nH]c2ccccc12)C(=O)N[C@H](Cc1c[nH]c2ccccc12)C(=O)N[C@H](CCCCN)C(=O)N[C@H](Cc1c[nH]c2ccccc12)C(=O)N1CCC[C@H]1C(=O)NCC(=O)N[C@H](Cc1c[nH]c2ccccc12)C(=O)N[C@H](CCCCN)C(=O)N[C@H](Cc1c[nH]c2ccccc12)C(=O)N[C@H](CCCCN)C(=O)N[C@H](Cc1c[nH]c2ccccc12)C(N)=O,MIC,[1],4 µM
same,Activity,[2],30.1%
same,MIC,[3],8 µM
same,MBC,[4],8 µM
same,MIC,[5],8 µM
same,Activity,[6],63%
same,Activity,[7],100%
same,Retention_time,[8],14.321 min
same,Activity,[9],63.8%
same,Activity,[10],100%
same,MBC,[11],8 µM
same,MBC,[12],8 µM
same,Activity,[13],Not Active
same,MBC,[14],8 µM
same,MIC,[15],2 µM
same,MBC,[16],4 µM
same,MIC,[17],4 µM
same,MIC,[18],8 µM
same,MBC,[19],32 µM
same,MHC,[20],46 µM
NCCCC[C@@H](N)C(=O)N[C@H](Cc1c[nH]c2ccccc12)C(=O)N[C@H](CCCCN)C(=O)N[C@H](Cc1c[nH]c2ccccc12)C(=O)N[C@H](CCCCN)C(=O)N1CCC[C@H]1C(=O)NCC(=O)N[C@H](CCCCN)C(=O)N[C@H](Cc1c[nH]c2ccccc12)C(=O)N[C@H](CCCCN)C(=O)N[C@H](Cc1c[nH]c2ccccc12)C(=O)N[C@H](CCCCN)C(N)=O,MIC,[1],4 µM
same,Activity,[2],39.2%
same,MIC,[3],64 µM
same,MBC,[4],8 µM
same,MIC,[5],32 µM
same,Activity,[6],80.2%
same,Activity,[7],100%
same,Retention_time,[8],11.212 min
same,Activity,[9],84.3%
same,Activity,[10],100%
same,MBC,[11],64 µM
same,MBC,[12],16 µM
same,MBC,[14],32 µM
same,MIC,[15],2 µM
same,MBC,[16],8 µM
same,MIC,[17],32 µM
same,MIC,[18],8 µM
same,MBC,[19],128 µM
same,MHC,[20],> 512 µM
NCCCC[C@@H](N)C(=O)N[C@H](Cc1c[nH]c2ccccc12)C(=O)N[C@H](CCCCN)C(=O)N[C@H](Cc1c[nH]c2ccccc12)C(=O)N[C@H](CCCCN)C(=O)N1CCC[C@@H]1C(=O)NCC(=O)N[C@H](CCCCN)C(=O)N[C@H](Cc1c[nH]c2ccccc12)C(=O)N[C@H](CCCCN)C(=O)N[C@H](Cc1c[nH]c2ccccc12)C(=O)N[C@H](CCCCN)C(N)=O,MIC,[1],4 µM
same,Activity,[2],30.4%
same,MIC,[3],8 µM
same,MBC,[4],8 µM
same,MIC,[5],16 µM
same,Activity,[6],47%
same,Activity,[7],100%
same,Retention_time,[8],11.539 min
same,Activity,[9],35%
same,Activity,[10],100%
same,MBC,[11],16 µM
same,MBC,[12],8 µM
same,MBC,[14],32 µM
same,MIC,[15],4 µM
same,MBC,[16],16 µM
same,MIC,[17],16 µM
same,MIC,[18],8 µM
same,MBC,[19],32 µM
same,MHC,[20],> 512 µM
POLYMYXIN B,Activity,[21],inactive
same,MIC,[1],8 µM
same,fold change (FC),[22],8
same,Activity,[23],42.6%
same,MIC,[24],8 µM
same,Activity,[25],Active
same,MIC,[3],1 µM
same,Activity,[26],38%
same,MBC,[4],8 µM
same,Activity,[27],Active
same,Activity,[28],Active
same,Activity,[29],inactive
same,MIC,[30],2 µM
same,MIC,[31],16 µM
same,MIC,[5],2 µM
same,Activity,[32],inactive
same,MIC,[33],2 µM
same,MIC,[34],16 µM
same,Activity,[35],47.5%
same,MBC,[11],2 µM
same,MIC,[36],8 µM
same,MBC,[12],2 µM
same,Activity,[37],Active
same,Activity,[38],Active
same,MIC,[39],8 µM
same,MIC,[40],2 µM
same,MIC,[41],8 µM
same,MIC,[42],8 µM
same,Activity,[43],45.4%
same,MBC,[14],32 µM
same,MIC,[44],16 µM
same,Activity,[45],Active
same,MIC,[15],4 µM
same,MBC,[16],16 µM
same,MIC,[17],8 µM
same,MIC,[18],2 µM
same,MBC,[19],1 µM
